# In paper PMC9402538, “Rational design of a sensitivity-enhanced tracer for discovering efficient APC–Asef inhibitors” (Nature Communications, 2022):
# Several values for one entry are separate records, joined by “and”; a condition that tells them apart may be missing. Equal entries are not always repeated. Where two headings read alike, the source gives them in different places. Where a SMILES comes first, the peptide text is derived from it. The star is where a group is joined. Pyrrole(1-Me-2-CO) = Cn1cccc1C(=O)*; Thiophene2carbonyl = O=C(c1cccs1)*; Picolinoyl = O=C(c1ccccn1)*; Bz = O=C(c1ccccc1)*
# Legend:
# [1] = biological target: T1, APC (303–739) (Homo sapiens, UniProt P25054); experiment: FP competitive assay using tracer 7; assay type: binding; conditions: for FP(mp): Tracer 7, replicate wells
# T1 sequence (P25054 303-739): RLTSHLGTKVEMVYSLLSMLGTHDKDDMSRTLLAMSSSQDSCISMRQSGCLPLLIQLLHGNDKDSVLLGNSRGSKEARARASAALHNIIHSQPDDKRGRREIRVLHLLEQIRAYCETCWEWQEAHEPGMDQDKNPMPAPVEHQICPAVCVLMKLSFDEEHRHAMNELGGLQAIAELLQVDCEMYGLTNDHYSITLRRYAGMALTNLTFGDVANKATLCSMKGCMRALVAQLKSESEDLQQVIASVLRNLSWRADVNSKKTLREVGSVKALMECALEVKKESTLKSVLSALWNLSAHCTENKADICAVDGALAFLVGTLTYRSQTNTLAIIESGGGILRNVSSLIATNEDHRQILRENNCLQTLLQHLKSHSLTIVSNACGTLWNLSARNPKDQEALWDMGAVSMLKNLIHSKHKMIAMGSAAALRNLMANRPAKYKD
# Method in brief: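 Fluorescence polarization competition: APC (303–739) in 50 mM HEPES pH 7.5, 300 mM NaCl, 1 mM EDTA, 1 mM DTT, preincubated 1 h at room temperature with serially diluted peptides. FITC tracer 7 then added (400 nM stock) and FP read after 1.5 h at room temperature; IC50 by nonlinear regression, triplicates.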
# [2] = biological target: T2, APC (Homo sapiens, UniProt P25054); experiment: FP competitive assay using tracer 1; assay type: binding; conditions: for FP(mp): Tracer 1, triplicate raw readings
# T2 sequence (P25054 303-739): T1 sequence (P25054 303-739)
# Method: In our previous study, we established an FP assay for screening APC–Asef inhibitors using FITC-labeled tracer 1 (Ac–^176[…][FITC]^195–NH2)[16]. […]. However, their Kd values measured by isothermal titration calorimetry (ITC) actually vary up to more than 20 times[16],[17]. […].
# FITC-labeled tracer peptides were obtained from Changzhou Kanglong Biotech Ltd. (Changzhou, Jiangsu, China). […]. The FP signal changes upon tracer binding were measured after 1.5 h of incubation using a Synergy neo microplate reader (BioTek Instruments, Inc.) and plotted against the protein concentration. The corresponding EC50 values were generated by fitting the curves with a nonlinear regression model. […]. To make a working solution, APC (303–739) was diluted in FP buffer (50 mM HEPES, pH 7.5, 300 mM NaCl, 1 mM EDTA, 1 mM DTT). […] The FP signals were measured after 1.5 h of incubation at room temperature using a Synergy neo microplate reader. Three controls were included on each plate, i.e., blank (without protein and tracer), 100% inhibition (free tracer only), and 0% inhibition (protein/tracer complex only) controls. All experiments were performed in triplicate. The IC50 values of peptides were calculated by nonlinear regression analysis using GraphPad Prism 7.0 software.
# [3] = Repeat 1, Table 3 source data, read-out: IC50(μM) Repeat 1
# [4] = Repeat 2, Table 3 source data, read-out: IC50(μM) Repeat 2
# [5] = Repeat 3, Table 3 source data, read-out: IC50(μM) Repeat 3
# [6] = mean of 3 repeats, Table 3 source data, read-out: IC50(μM) mean
# [7] = Supplementary Table 4, read-out: IC50, Tracer 1
Compound,FP(mp) ([1]; Conc. 0.0061 μM),FP(mp) ([1]; Conc. 0.0122 μM),FP(mp) ([1]; Conc. 0.0244 μM),FP(mp) ([1]; Conc. 0.05 μM),FP(mp) ([1]; Conc. 0.10 μM),FP(mp) ([1]; Conc. 0.20 μM),FP(mp) ([1]; Conc. 0.39 μM),FP(mp) ([1]; Conc. 0.78 μM),FP(mp) ([1]; Conc. 1.56 μM),FP(mp) ([1]; Conc. 3.13 μM),FP(mp) ([1]; Conc. 6.25 μM),FP(mp) ([1]; Conc. 12.50 μM),FP(mp) ([1]; Conc. 25.00 μM),FP(mp) ([1]; Conc. 50.00 μM),FP(mp) ([2]; Conc. 0.05 μM),FP(mp) ([2]; Conc. 0.10 μM),FP(mp) ([2]; Conc. 0.20 μM),FP(mp) ([2]; Conc. 0.39 μM),FP(mp) ([2]; Conc. 0.78 μM),FP(mp) ([2]; Conc. 1.56 μM),also measured
CC(C)C[C@H](NC(=O)[C@H](CO)NC(=O)[C@H](CCC(=O)O)NC(=O)CNC(=O)[C@H](C)NC(=O)c1cccs1)C(=O)N[C@@H](Cc1ccc(O)cc1)C(=O)N[C@@H](CCC(=O)O)C(N)=O [MAI-507] (Thiophene2carbonyl-AGESLYE-NH2),306 mp and 304 mp and 305 mp,299 mp and 301 mp (2×),278 mp and 279 mp and 280 mp,256 mp (2×) and 257 mp,216 mp and 219 mp (2×),178 mp (2×) and 173 mp,138 mp and 133 mp and 136 mp,107 mp and 99 mp and 101 mp,89 mp and 77 mp and 80 mp,75 mp and 72 mp (2×),59 mp and 54 mp and 58 mp,60 mp (2×) and 54 mp,54 mp and 51 mp and 52 mp,57 mp (2×) and 54 mp,180 mp and 182 mp,173 mp and 180 mp and 179 mp,168 mp and 169 mp and 173 mp,130 mp and 156 mp and 153 mp,56 mp and 61 mp and 98 mp,53 mp and 54 mp and 52 mp,"IC50 ([1]; IC50(μM) Repeat 1, Repeat 1, Table 3 source data): 0.173 µM; IC50 ([1]; IC50(μM) Repeat 2, Repeat 2, Table 3 source data): 0.162 µM; IC50 ([1]; IC50(μM) Repeat 3, Repeat 3, Table 3 source data): 0.175 µM; IC50 ([1]; IC50(μM) mean, mean of 3 repeats, Table 3 source data): 0.17 µM; IC50 ([1]; IC50 ± SD, tracer 7, APC 25 nM, average of three independent experiments): 0.17 ± 0.007 µM; IC50 [2]: 340 ± 120 nM; FP(mp) ([2]; Conc. 3.13 μM): 53 mp and 50 mp and 52 mp; FP(mp) ([2]; Conc. 6.25 μM): 50 mp and 51 mp; FP(mp) ([2]; Conc. 12.50 μM): 50 mp and 47 mp and 48 mp; FP(mp) ([2]; Conc. 25.00 μM): 51 mp and 47 mp and 48 mp; FP(mp) ([2]; Conc. 50.00 μM): 49 mp and 47 mp and 48 mp; FP(mp) ([2]; Conc. 100.00 μM): 48 mp and 47 mp; FP(mp) ([2]; Conc. 200.00 μM): 48 mp; FP(mp) ([2]; Conc. 400.00 μM): 49 mp and 48 mp"
CC(C)C[C@H](NC(=O)[C@H](CO)NC(=O)[C@H](CCC(=O)O)NC(=O)CNC(=O)[C@H](C)NC(=O)c1cccn1C)C(=O)N[C@@H](Cc1ccc(O)cc1)C(=O)N[C@@H](CCC(=O)O)C(N)=O [MAI-510] ({Pyrrole(1-Me-2-CO)}-AGESLYE-NH2),303 mp,296 mp and 295 mp and 301 mp,291 mp and 290 mp and 295 mp,274 mp and 278 mp and 275 mp,247 mp and 251 mp and 254 mp,216 mp and 217 mp and 220 mp,171 mp and 173 mp and 169 mp,131 mp and 132 mp (2×),98 mp and 97 mp and 95 mp,71 mp and 73 mp and 75 mp,62 mp and 60 mp and 65 mp,52 mp and 53 mp and 55 mp,50 mp (2×) and 55 mp,47 mp and 50 mp (2×),182 mp and 181 mp and 180 mp,170 mp and 178 mp and 179 mp,158 mp and 172 mp,146 mp and 158 mp and 159 mp,82 mp and 112 mp and 116 mp,61 mp and 63 mp and 64 mp,"IC50 [1, 3]: 0.366 µM; IC50 [1, 4]: 0.34 µM; IC50 [1, 5]: 0.303 µM; IC50 [1, 6]: 0.336 µM; IC50 [2, 7]: 490 ± 130 nM; FP(mp) ([2]; Conc. 3.13 μM): 52 mp and 51 mp and 53 mp; FP(mp) ([2]; Conc. 6.25 μM): 51 mp and 50 mp; FP(mp) ([2]; Conc. 12.50 μM): 49 mp and 48 mp; FP(mp) ([2]; Conc. 25.00 μM): 49 mp and 46 mp and 48 mp; FP(mp) ([2]; Conc. 50.00 μM): 46 mp and 47 mp and 50 mp; FP(mp) ([2]; Conc. 100.00 μM): 48 mp and 49 mp and 50 mp; FP(mp) ([2]; Conc. 200.00 μM): 48 mp and 47 mp; FP(mp) ([2]; Conc. 400.00 μM): 50 mp and 52 mp"
CC(C)C[C@H](NC(=O)[C@H](CO)NC(=O)[C@H](CCC(=O)O)NC(=O)CNC(=O)[C@H](C)NC(=O)c1ccccn1)C(=O)N[C@@H](Cc1ccc(O)cc1)C(=O)N[C@@H](CCC(=O)O)C(N)=O [MAI-512] (Picolinoyl-AGESLYE-NH2),305 mp and 310 mp and 308 mp,307 mp and 310 mp (2×),298 mp and 303 mp and 300 mp,293 mp and 300 mp and 297 mp,290 mp and 286 mp and 291 mp,266 mp and 274 mp and 271 mp,242 mp and 240 mp and 236 mp,199 mp (2×) and 200 mp,160 mp and 157 mp and 158 mp,119 mp (2×) and 121 mp,94 mp and 89 mp and 91 mp,80 mp and 77 mp and 78 mp,69 mp and 66 mp and 65 mp,61 mp and 57 mp and 60 mp,172 mp and 170 mp,168 mp,166 mp and 163 mp and 165 mp,156 mp and 155 mp and 153 mp,126 mp and 125 mp and 122 mp,80 mp and 79 mp and 78 mp,"IC50 [1, 3]: 1.04 µM; IC50 [1, 4]: 0.958 µM; IC50 [1, 5]: 0.93 µM; IC50 [1, 6]: 0.976 µM; IC50 [2, 7]: 750 ± 180 nM; FP(mp) ([2]; Conc. 3.13 μM): 59 mp and 55 mp; FP(mp) ([2]; Conc. 6.25 μM): 52 mp and 50 mp; FP(mp) ([2]; Conc. 12.50 μM): 53 mp and 48 mp and 50 mp; FP(mp) ([2]; Conc. 25.00 μM): 51 mp and 48 mp and 47 mp; FP(mp) ([2]; Conc. 50.00 μM): 51 mp and 48 mp and 47 mp; FP(mp) ([2]; Conc. 100.00 μM): 51 mp and 53 mp; FP(mp) ([2]; Conc. 200.00 μM): 51 mp and 47 mp and 50 mp; FP(mp) ([2]; Conc. 400.00 μM): 53 mp and 50 mp and 47 mp"
CC(C)C[C@H](NC(=O)[C@H](CO)NC(=O)[C@H](CCC(=O)O)NC(=O)CNC(=O)[C@H](C)NC(=O)c1ccccc1)C(=O)N[C@@H](Cc1ccc(O)cc1)C(N)=O [MAI-463] (Bz-AGESLY-NH2),–,–,–,–,–,–,–,–,–,–,–,–,–,–,–,–,–,–,–,–,"IC50 ([1]; IC50, Tracer 7, Supplementary Table 4): 1.3 ± 0.05 µM; IC50 [2]: 730 ± 150 nM"
